Patent publication US9580413B2, “Substituted pyrrolidines as ROS tyrosine kinase inhibitors” (NIPPON SHINYAKU CO., LTD., priority 2012, dated 2017)

Key:
[1] = system: non-small cell lung cancer with ROS fusion gene positive; settings: clinical application, Non-Patent Document 22; cited from earlier work
ROS tyrosine kinase = molecular target: T1, ROS tyrosine kinase (Homo sapiens, UniProt P08922); assay: ROS tyrosine kinase inhibitory activity test (ELISA); format: biochemical, humans; settings: 25 μM ATP substrate solution, 30° C., one hour
T1 construct: purchased Carna Biosciences, Inc
How it was run: (§1)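 Human recombinant ROS or JAK2 kinase (added as a 0.25 nM solution) reacted for 1 h at 30 °C in 15 mM Tris-Cl pH 7.5, 0.01% Tween-20, 1 mM DTT with compound from DMSO. Substrate phosphotyrosine was detected by HRP anti-phosphotyrosine antibody and TMB at A450, and IC50 came from non-linear regression.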

JAK2 tyrosine kinase = molecular target: T2, JAK2 tyrosine kinase (Homo sapiens, UniProt O60674); assay: JAK2 tyrosine kinase inhibitory activity test (ELISA); format: biochemical, humans; settings: 25 μM ATP substrate solution, 30° C., one hour
T2 construct: purchased Carna Biosciences, Inc
T2 sequence (O60674 whole entry): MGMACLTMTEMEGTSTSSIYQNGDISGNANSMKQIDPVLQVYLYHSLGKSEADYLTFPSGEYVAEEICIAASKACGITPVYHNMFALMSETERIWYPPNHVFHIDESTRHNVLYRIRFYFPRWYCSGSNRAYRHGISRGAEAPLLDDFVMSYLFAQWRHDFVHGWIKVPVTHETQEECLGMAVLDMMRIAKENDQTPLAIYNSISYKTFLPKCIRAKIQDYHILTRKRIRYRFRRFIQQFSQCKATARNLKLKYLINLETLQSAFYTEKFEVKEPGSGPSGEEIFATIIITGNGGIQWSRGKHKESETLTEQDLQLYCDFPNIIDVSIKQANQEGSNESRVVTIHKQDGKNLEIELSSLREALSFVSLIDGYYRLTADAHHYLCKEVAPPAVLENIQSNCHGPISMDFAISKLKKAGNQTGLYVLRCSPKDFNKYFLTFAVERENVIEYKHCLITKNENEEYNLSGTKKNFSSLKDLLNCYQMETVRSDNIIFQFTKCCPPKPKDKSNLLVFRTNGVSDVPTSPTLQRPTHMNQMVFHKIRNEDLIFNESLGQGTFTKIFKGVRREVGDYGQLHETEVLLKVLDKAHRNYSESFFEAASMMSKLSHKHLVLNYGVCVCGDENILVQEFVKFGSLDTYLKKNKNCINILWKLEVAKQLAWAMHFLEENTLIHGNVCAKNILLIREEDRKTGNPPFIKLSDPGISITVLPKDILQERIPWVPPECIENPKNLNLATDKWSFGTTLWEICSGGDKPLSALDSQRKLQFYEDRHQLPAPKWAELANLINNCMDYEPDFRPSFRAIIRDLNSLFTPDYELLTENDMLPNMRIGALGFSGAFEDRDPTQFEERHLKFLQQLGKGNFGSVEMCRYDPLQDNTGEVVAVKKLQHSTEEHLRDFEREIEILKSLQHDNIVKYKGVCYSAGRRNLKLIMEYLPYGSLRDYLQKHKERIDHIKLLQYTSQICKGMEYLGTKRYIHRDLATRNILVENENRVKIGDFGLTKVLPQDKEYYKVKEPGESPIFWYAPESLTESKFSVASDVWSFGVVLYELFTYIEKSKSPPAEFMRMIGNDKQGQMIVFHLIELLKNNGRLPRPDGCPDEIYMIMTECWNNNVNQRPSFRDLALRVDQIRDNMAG
How it was run: as §1

FIG-ROS/BaF3 cell = molecular target: T3, FIG-ROS/BaF3 cell (Homo sapiens, UniProt P08922); assay: Proliferation inhibitory activity test against FIG-ROS/BaF3 cell; format: cell-based; settings: 3 days incubation, cell counting kit; read-out: Proliferation inhibitory activity against FIG-ROS/BaF3 cell (IC50)
T3 construct: fused on or other part: Q9HD26 (Golgi-associated PDZ and coiled-coil motif-containing protein)
T3 sequence (P08922 whole entry, stated change not applied, the tested form may be a part): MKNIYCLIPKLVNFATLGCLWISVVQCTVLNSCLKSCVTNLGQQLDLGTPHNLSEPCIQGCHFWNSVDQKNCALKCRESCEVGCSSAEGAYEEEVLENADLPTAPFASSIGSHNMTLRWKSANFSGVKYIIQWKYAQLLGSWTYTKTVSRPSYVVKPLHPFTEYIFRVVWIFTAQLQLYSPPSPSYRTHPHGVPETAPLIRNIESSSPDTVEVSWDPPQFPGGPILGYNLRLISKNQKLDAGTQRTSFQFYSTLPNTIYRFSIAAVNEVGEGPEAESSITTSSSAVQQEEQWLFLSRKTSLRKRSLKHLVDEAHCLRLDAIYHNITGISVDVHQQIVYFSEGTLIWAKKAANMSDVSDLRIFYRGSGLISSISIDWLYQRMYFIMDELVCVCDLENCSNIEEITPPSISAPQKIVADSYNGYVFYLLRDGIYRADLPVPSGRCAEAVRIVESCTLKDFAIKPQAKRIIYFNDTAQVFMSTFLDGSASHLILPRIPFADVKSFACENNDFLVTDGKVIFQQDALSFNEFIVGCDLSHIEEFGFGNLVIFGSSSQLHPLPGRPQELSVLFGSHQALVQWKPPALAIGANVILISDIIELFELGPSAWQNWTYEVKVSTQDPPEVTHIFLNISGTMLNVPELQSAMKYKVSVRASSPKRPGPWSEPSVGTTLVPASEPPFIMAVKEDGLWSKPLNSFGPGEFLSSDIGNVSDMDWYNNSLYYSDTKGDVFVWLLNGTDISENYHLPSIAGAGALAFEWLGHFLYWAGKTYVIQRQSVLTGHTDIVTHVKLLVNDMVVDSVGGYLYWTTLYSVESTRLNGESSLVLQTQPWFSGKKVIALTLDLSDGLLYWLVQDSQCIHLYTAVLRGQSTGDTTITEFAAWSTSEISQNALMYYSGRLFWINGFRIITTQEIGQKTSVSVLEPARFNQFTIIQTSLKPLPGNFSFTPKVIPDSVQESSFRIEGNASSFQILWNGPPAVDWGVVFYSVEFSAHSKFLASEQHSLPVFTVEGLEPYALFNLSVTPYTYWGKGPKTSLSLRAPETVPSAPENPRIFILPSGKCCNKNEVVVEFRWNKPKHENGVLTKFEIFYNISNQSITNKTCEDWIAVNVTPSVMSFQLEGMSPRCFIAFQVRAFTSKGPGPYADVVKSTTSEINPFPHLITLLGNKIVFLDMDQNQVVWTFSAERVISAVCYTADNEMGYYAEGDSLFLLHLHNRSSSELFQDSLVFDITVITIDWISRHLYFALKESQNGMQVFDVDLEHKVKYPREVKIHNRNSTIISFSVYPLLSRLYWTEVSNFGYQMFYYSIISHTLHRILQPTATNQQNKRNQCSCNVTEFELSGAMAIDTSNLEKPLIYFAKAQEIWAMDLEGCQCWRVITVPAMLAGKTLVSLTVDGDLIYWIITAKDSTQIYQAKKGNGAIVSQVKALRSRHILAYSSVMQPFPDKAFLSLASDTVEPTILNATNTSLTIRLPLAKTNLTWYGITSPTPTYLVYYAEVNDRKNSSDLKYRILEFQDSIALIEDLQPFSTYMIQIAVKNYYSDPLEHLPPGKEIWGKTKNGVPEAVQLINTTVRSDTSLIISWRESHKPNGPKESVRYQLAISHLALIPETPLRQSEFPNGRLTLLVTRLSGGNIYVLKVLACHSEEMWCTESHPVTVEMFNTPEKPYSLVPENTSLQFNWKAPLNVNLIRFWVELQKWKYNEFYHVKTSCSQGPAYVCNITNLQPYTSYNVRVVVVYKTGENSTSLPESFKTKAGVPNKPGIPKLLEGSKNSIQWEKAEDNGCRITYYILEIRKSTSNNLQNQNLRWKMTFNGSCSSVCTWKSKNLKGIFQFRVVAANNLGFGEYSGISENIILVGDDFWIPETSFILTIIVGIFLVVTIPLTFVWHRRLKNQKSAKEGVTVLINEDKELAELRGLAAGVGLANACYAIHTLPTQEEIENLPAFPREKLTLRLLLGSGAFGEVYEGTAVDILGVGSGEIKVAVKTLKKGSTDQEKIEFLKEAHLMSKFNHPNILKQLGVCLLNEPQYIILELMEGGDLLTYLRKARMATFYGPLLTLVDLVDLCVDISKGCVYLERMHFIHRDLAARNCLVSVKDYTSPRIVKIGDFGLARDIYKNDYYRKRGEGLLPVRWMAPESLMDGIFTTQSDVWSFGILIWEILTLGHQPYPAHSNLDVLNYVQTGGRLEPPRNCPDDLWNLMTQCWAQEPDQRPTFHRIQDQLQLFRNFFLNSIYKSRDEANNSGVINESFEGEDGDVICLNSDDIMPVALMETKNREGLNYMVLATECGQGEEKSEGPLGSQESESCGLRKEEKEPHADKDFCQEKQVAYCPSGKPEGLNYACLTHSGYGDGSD
Method: A BaF3 cell which had been transformed by introducing the FIG-ROS fusion gene (derived from U118MG human glioma cell) (FIG-ROS/BaF3 Cell) was prepared on a culture medium, seeded on a 96-well plate in the number of 1×10^3/100 μL per well, and then allowed to stand in a CO2 incubator (at 37° C. and 5% CO2). As the culture medium, 10% FBS (fetal bovine serum)-incorporated RPMI-1640 was used.
2. Proliferation Inhibitory Activity Test:
A test substance was dissolved in dimethyl sulfoxide (DMSO) to 10 mM and further diluted with DMSO to 100-fold to prepare a 100 μM solution. This was diluted with a 1% DMSO-incorporated medium to concentrations of 10-fold of the concentration to be measured (10,000, 1,000, 100, 10, and 1 nM). Each of the medicine solutions was added at 11 μL per well and mixed. To a control having no medicine added thereto, a 1% DMSO-incorporated medium was added, and incubated in a CO2 incubator (at 37° C. and 5% CO2) for 3 days. After completion of the incubation, the number of live cells was counted using a cell counting kit. First of all, each cell counting kit solution was added at 5 μL per well and mixed, and incubated in a CO2 incubator (at 37° C. and 5% CO2) for 4 hours. An absorbance at 450 nm was measured with a microplate reader (Model 3550, manufactured by BIO-RAD, Benchmark, manufactured by BIO-RAD, or iMARK, manufactured by BIO-RAD) with a reference wavelength of 650 nm.
3. Analysis of Measurement Results:
A non-linear regression analysis was performed for the measured absorbance with an SAS system (SAS Institute Inc.), and a concentration of each of the test substances of inhibiting the cell proliferation at 50% (IC50) was calculated. The proliferation inhibitory activity (IC50, nM) of each of the test substances against the FIG-ROS/BaF3 cell is shown in Table 9.

| Compound | effectiveness for patients of non-small cell lung cancer with ROS fusion gene positive [1] | IC50 (ROS tyrosine kinase) | IC50 (JAK2 tyrosine kinase) | GI50 (FIG-ROS/BaF3 cell) |
| --- | --- | --- | --- | --- |
| C[C@@H](Oc1cc(-c2cnn(C3CCNCC3)c2)cnc1N)c1c(Cl)ccc(F)c1Cl [crizotinib] | effective |  |  |  |
| Cc1ccc([C@@H]2CCCN2c2cc(C(=O)N[C@H]3CC[C@H](O)CC3)c(C)c(Nc3ncc(C#N)s3)n2)cc1 [Example 68, 2-[(5-Cyano-1,3-thiazol-2-yl)amino]-N-(4-hydroxycyclohexyl)-3-methyl-6-[(2S)-2-(4-methylphenyl)pyrrolidin-1-yl]pyridine-4-carboxamide] |  | 0.76 nM | 22 nM | 0.71 nM |
| COc1c(Nc2ncc(C#N)s2)nc(N2CCC[C@H]2c2ccc(C)cc2)nc1C(=O)N[C@H]1CC[C@H](O)CC1 [Example 62, 6-[(5-Cyano-1,3-thiazol-2-yl)amino]-N-(trans-4-hydroxycyclohexyl)-5-methoxy-2-[(2S)-2-(4-methylphenyl)pyrrolidin-1-yl]pyrimidine-4-carboxamide] |  | 2.1 nM | > 1000 nM | 2.6 nM |
| CCc1cnc(Nc2cncc(N3CCCC3c3ccc(C)cc3)n2)s1 (stereo not shown) [Example 45, N-(5-Ethyl-1,3-thiazol-2-yl)-6-[2-(4-methylphenyl)pyrrolidin-1-yl]pyrazine-2-amine] |  | 7.3 nM | 210 nM | 7.6 nM |
| Cc1ccc(C2CCCN2c2nc(Nc3ncc(C#N)s3)cc(C(=O)O)n2)cc1 (stereo not shown) [Example 7, 6-[(5-Cyano-1,3-thiazol-2-yl)amino]-2-[2-(4-methylphenyl)pyrrolidin-1-yl]pyrimidine-4-carboxylic acid] |  | 0.6 nM | 37 nM | 83 nM |
| N#Cc1cnc(Nc2cncc(N3CCCC3c3ccc(Cl)cc3)n2)s1 (stereo not shown) [Example 48, 2-({6-[2-(4-Chlorophenyl)pyrrolidin-1-yl]pyrazin-2-yl}amino)-1,3-thiazole-5-carbonitrile] |  | 0.6 nM | 31 nM | 1.9 nM |
| COc1c(Nc2ncc(C#N)s2)nc(N2CCC[C@H]2c2ccc(C)cc2)nc1-c1ccc(O)nc1 [Example 65, 2-({6-(6-Hydroxypyridin-3-yl)-5-methoxy-2-[(2S)-2-(4-methylphenyl)pyrrolidin-1-yl]pyrimidin-4-yl}amino)-1,3-thiazole-5-carbonitrile] |  | 1.3 nM | 260 nM | 1.9 nM |
| N#Cc1cnc(Nc2nc(N3CCCC3c3ccc(F)cc3)cnc2-c2ccncc2)s1 (stereo not shown) [Example 26, 2-({6-[2-(4-Fluorophenyl)pyrrolidin-1-yl]-3-(pyridin-4-yl)pyrazin-2-yl}amino)-1,3-thiazole-5-carbonitrile] |  | 12 nM | > 1000 nM | 10 nM |
| COc1c(Nc2ncc(C#N)s2)nc(N2CCCC2c2ccc(C)cc2)nc1-c1ccc(C(N)=O)cc1 (stereo not shown) [Example 4, 4-{6-[(5-Cyano-1,3-thiazol-2-yl)amino]-5-methoxy-2-[2-(4-methylphenyl)pyrrolidin-1-yl]pyrimidin-4-yl}benzamide] |  | 35 nM | > 1000 nM | 2.6 nM |
| Cc1ccc([C@@H]2CCCN2c2cnc(C)c(Nc3ncc(C)s3)n2)cc1 [Example 29, 3-Methyl-6-[(2S)-2-(4-methylphenyl)pyrrolidin-1-yl]-N-(5-methyl-1,3-thiazol-2-yl)pyrazine-2-amine] |  | 1.3 nM | 140 nM | 4.3 nM |
| Cc1ccc([C@@H]2CCCN2c2cc(-c3cnn(C)c3)cc(Nc3ncns3)n2)cc1 [Example 69, 6-[(2S)-2-(4-Methylphenyl)pyrrolidin-1-yl]-4-(1-methyl-1H-pyrazol-4-yl)-N-(1,2,4-thiadiazol-5-yl)pyridine-2-amine] |  | 11 nM | 17 nM | 6.9 nM |
